Experimental data published in patent publication US20260184707A1, “PHARMACEUTICAL COMPOUNDS FOR THE TREATMENT OF COMPLEMENT MEDIATED DISORDERS” (ALEXION PHARMACEUTICALS, INC., priority 2022, published 2026).

The compounds below were run against T1, Human complement C1s enzyme (Homo sapiens, UniProt P09871) (assay: Human C1s enzyme assay). Details: human complement C1s enzyme 1.16 nM, substrate Z-L-Lys-SBzl, A405; read-out: IC50 (Stars).
T1 construct: purified from human serum, Complement Technology, Inc; purchased Complement Technology, Inc; host or cells: human serum (plasma-derived native protein)
T1 sequence (P09871 438-688 limits assumed): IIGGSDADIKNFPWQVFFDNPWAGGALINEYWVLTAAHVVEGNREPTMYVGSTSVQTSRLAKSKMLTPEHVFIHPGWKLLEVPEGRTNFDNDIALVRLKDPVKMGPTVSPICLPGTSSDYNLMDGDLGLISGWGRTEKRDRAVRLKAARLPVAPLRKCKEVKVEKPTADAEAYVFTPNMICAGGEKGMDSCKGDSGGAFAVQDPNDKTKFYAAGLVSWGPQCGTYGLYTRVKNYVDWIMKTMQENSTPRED
T1 sequence (P09871 16-437 partner limits assumed): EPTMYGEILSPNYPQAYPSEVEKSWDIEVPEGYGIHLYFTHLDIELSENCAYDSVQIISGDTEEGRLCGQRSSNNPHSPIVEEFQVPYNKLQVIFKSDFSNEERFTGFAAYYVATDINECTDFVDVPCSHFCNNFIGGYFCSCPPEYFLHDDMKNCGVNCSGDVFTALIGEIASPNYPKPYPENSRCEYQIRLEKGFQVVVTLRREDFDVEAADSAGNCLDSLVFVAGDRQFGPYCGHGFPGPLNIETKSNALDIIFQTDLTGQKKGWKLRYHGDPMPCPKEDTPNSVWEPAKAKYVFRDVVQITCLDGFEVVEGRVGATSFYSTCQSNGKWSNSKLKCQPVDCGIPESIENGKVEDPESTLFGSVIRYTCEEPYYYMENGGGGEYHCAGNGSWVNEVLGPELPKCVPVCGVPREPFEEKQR
Assay type: biochemical
Method in brief: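 Serum-purified human C1s (1.16 nM final) preincubated 5 min at room temperature with compound in 50 mM Tris, 1 M NaCl, pH 7.5. Z-L-Lys-SBzl and DTNB added at 100 μM each; A405 recorded every 30 s. IC50 from nonlinear regression of reaction rates versus compound concentration.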

Row | Compound | IC50 [nM]
1 | O=C(Cn1c(-c2ccc(OC3CS(=O)(=O)C3)cc2)ncc(NCCCc2ccccc2)c1=O)NCc1cc2cnccc2[nH]1 [Compound 124, N-((1H-pyrrolo[3,2-c]pyridine-2-yl)methyl)-2-(2-(4-((1,1-dioxidothietan-3-yl)oxy)phenyl)-6-oxo-5-((3-phenylpropyl)amino)pyrimidin-1(6H)-yl)acetamide] | < 100
2 | O=C(Cn1c(-c2ccccn2)ncc(NCc2ccc3oc4ccccc4c3c2)c1=O)NCc1cc2cnccc2[nH]1 [Compound 252, N-((1H-pyrrolo[3,2-c]pyridin-2-yl)methyl)-2-(5-((dibenzo [b,d]furan-2-ylmethyl)amino)-6-oxo-2-(pyridin-2-yl)pyrimi-din-1(6H)-yl)acetamide] | < 100
3 | O=C(Cn1c(-c2ccccc2)ncc(Nc2ccc(F)cc2)c1=O)NCc1cc2cnccc2[nH]1 [Compound 212, N-((1H-pyrrolo[3,2-c]pyridin-2-yl)methyl)-2-(5-((4-fluoro-phenyl)amino)-6-oxo-2-phen-ylpyrimidin-1(6H)-yl)acet-amide] | < 100
4 | O=C(Cn1cncc(NCc2ccc3oc4ccccc4c3c2)c1=O)NCc1cc2cnccc2[nH]1 [Compound 246, 2-[5-(Dibenzofuran-2-ylmethylamino)-6-oxo-pyrimidin-1-yl]-N-(1H-pyrrolo[3,2-c]pyridine-2-ylmethyl)acetamide] | < 100
5 | O=C(Cn1c(-c2ccccc2)ncc(N2CCN(c3ccccc3)CC2)c1=O)NCc1cc2cnccc2[nH]1 [Compound 37, N-((1H-pyrrolo[3,2-c]pyridin-2-yl)methyl)-2-(6-oxo-2-phen-yl-5-(4-phenylpiperazin-1-yl)-pyrimidin-1(6H)-yl)acetamide] | 100 to 1000
6 | O=C(Cn1c(-c2ccc(N3CCOCC3)nc2)ncc(NCc2ccc3oc4ccccc4c3c2)c1=O)NCc1cc2cnccc2[nH]1 [Compound 279, N-((1H-pyrrolo[3,2-c]pyridin-2-yl)methyl)-2-(5-((dibenzo [b,d]furan-2-ylmethyl)amino)-2-(6-morpholinopyridin-3-yl)-6-oxopyrimidin-1(6H)-yl)-acetamide] | < 100

More lines, now with the values ahead:

Row | IC50 [nM] | Compound
7 | 100 to 1000 | Cc1ncc(NC(=O)c2csc(-c3ccccc3)n2)c(=O)n1CC(=O)NCc1cc2cnccc2[nH]1 [Compound 406, N-(1-(2-(((1H-pyrrolo[3,2-c]pyridine-2-yl)methyl)amino)-2-oxoethyl)-2-methyl-6-oxo-1,6-dihydropyrimidin-5-yl)-2-phenylthiazole-4-carboxamide]
8 | < 100 | C[C@@H](Nc1cnc(N2CCCC2=O)n(CC(=O)NCc2cc3cnccc3[nH]2)c1=O)c1ccc2oc3ccccc3c2c1 [Compound 400, (R)-N-((1H-pyrrolo[3,2-c]pyridin-2-yl)methyl)-2-(5-((1-(dibenzo[b,d]furan-2-yl)ethyl)-amino)-6-oxo-2-(2-oxopyr-rolidin-1-yl)pyrimidin-1(6H)-yl)acetamide]
9 | < 100 | C[C@@H](Nc1ncc(-c2nccs2)n(CC(=O)NCc2cc3cnccc3[nH]2)c1=O)c1ccc2oc3ccccc3c2c1 [Compound 431, (R)-N-((1H-pyrrolo[3,2-c]pyridin-2-yl)methyl)-2-(3-((1-(dibenzo[b,d]furan-2-yl)ethyl)-amino)-2-oxo-6-(thiazol-2-yl)-pyrazin-1(2H)-yl)acetamide]
10 | < 100 | C[C@@H](Nc1ncc(C2CCCC2)n(CC(=O)NCc2cc3cnccc3[nH]2)c1=O)c1ccc2oc3ccccc3c2c1 [Compound 420, (R)-N-((1H-pyrrolo[3,2-c]pyridin-2-yl)methyl)-2-(6-cyclopentyl-3-((1-(dibenzo [b,d]furan-2-yl)ethyl)amino)-2-oxopyrazin-1(2H)-yl)acet-amide]
11 | < 100 | C[C@@H](Nc1cnc(-c2cn[nH]c2)n(CC(=O)NCc2cc3cnccc3[nH]2)c1=O)c1ccc2oc3ccccc3c2c1 [Compound 360, (R)—N-((1H-pyrrolo[3,2-c]pyridin-2-yl)methyl)-2-(5-((1-(dibenzo[b,d]furan-2-yl)ethyl)amino)-6-oxo-2-(1H-pyrazol-4-yl)pyrimidin-1(6H)-yl)acetamide]
